Results published in article PMC7177633, “Effective Cellular Transport of Ortho-Halogenated Sulfonamide Derivatives of Metformin Is Related to Improved Antiproliferative Activity and Apoptosis Induction in MCF-7 Cells” (International Journal of Molecular Sciences, 2020).
Like-named read-outs stand apart in the source and are kept apart here.

Key:
OCTs [1] = assay: Inhibition of [14C]choline uptake in MCF-7 cells (competitive inhibition assay); type: cell-based, human; settings: for IC50: mean ± SD (n = 3)
Experimental: (§1) The following day, after removal of the culture medium, the cells were carefully washed with prewarmed HBSS (Hanks’ balanced salt solution) containing 125 mM NaCl, 4.8 mM KCl, 1.2 mM MgSO4, 1.2 mM KH2PO4, 1.3 mM CaCl2, 5.6 mM glucose and 25 mM HEPES (pH 7.4). […] Then, the cells were washed three times with ice-cold HBSS (500 μL) and were lysed with 250 μL of 0.1-M NaOH in the ice bath, and the lysate was mixed with 1.0 mL of an emulsifier safe cocktail (PerkinElmer, Waltham, MA, USA). The radioactivity was measured by liquid scintillation counting (MicroBeta^2 counter, PerkinElmer, Waltham, MA, USA). The studies were carried out with the use of at least three replicates from the same cell passage.

MCF-7 cells [2] = assay: Cell viability WST-1 assay, MCF-7; type: cell-based; settings: Homo sapiens, MCF7; WST-1, 24 h, mean ± SD (n = 6–8); read-out: IC50 inhibition of MCF-7 cells' viability
Experimental: (§2) The viability of MCF-7 and MDA-MB-231 cells was determined using a colorimetric WST-1 assay (Takara, Takara Bio Europe, Saint-Germain-en-Laye, France). Both cell lines were seeded at a density of 1 × 10^4 per well on 96-well plates and were cultured for 24 h to obtain 70% confluence. The following day, the cells were treated with various concentrations of compounds 1–9 diluted in the cell culture medium ([…]). The cells were incubated with tested compounds or pure medium (control) for 24 h (37 °C, 5% CO2). Afterwards, the cells were washed with 100 μL of culture medium, and then, the reagent dissolved in the medium was added (100 μL). The plates were incubated at the standard condition for 1.5 h, and the absorbance was read at 450 nm using a microplate reader (iMARK, Bio-Rad, Bio-Rad Laboratories Inc., Hercules, CA, USA). […] The results of samples treated with the test compounds were expressed as a percentage of the control samples. The data were presented as mean ± standard deviation (SD), n = 8. IC50 values (the concentration of the tested compound that inhibited cell growth by 50%) were calculated using a concentration-response curve (GraphPad Prism, Software, San Diego, CA, USA).
(§3) The concentrations contributing to the 50% of cell growth inhibition (IC50) were calculated using nonlinear regression analysis (fitting the curve to log (concentration) vs. cellular response).

MCF-7 cells [3] = assay: Uptake in the presence of OCT and MATE inhibitors, MCF-7 cells; type: in vitro ADME, human; settings: for interactions with OCT, PMAT and MATE1 transporters, MCF-7: summary from uptake with inhibitors
Experimental: (§4) The uptake of sulfonamide derivatives of metformin (1–9) in MCF-7 and MDA-MB-231 cells was studied also in the presence of disopyramide, cimetidine (OCT1 and 3 inhibitors), lopinavir (OCT and PMAT inhibitor) and methenamine (MATE and OCT2 inhibitors). The cells were incubated (37 °C, 10 min) with compounds 1–9 at concentrations of 400 and 800 μmol/L and inhibitors (disopyramide, cimetidine, lopinavir or methenamine) in 250 μL of prewarmed HBSS buffer. The protocol of determination of the compound concentration was as described above.

MDA-MB-231 cells [4] = assay: Cellular uptake of metformin sulfonamides in MDA-MB-231 cells (HPLC); type: in vitro ADME, human
Experimental: (§5) The uptake of metformin sulfonamides (1–9) in MCF-7 and MDA-MB-231 cells was studied by incubation of the cells with 10−3000 μmol/L of compounds in 250 μL of prewarmed HBSS buffer at 37 °C for 10 min. Subsequently, the cells were then washed three times with 500 μL of ice-cold HBSS and lysed with 250 μL of 0.1-M NaOH. The samples were collected, centrifuged (5 min, 1400 rpm) and the supernatants were analyzed by the HPLC method. The concentration of each compound in the cells was calculated on the basis of the standard curve prepared by spiking known amounts of every compound on the cell layers in 250 μL of 0.1-M NaOH.
(§6) The concentration of the studied sulfonamides (1–9) was assessed using the HPLC system, consisting of an Agilent 1100 binary pump (Agilent Technologies Inc., Wilmington, DE, USA), an 1100 micro-vacuum degasser, an HP 1050 autosampler and an HP 1050 variable wavelength detector (operated at 235 nm). The chromatographic separations of compounds 1–9 were conducted on an Agilent Zorbax SB-C18 analytical column (4.6 mm × 150 mm, 5 μm) using an isocratic elution of water containing 0.1% formic acid (pH ca. 3.0) and acetonitrile containing 0.1% formic acid with a changing ratio, depending on the compound. The analyses were conducted at room temperature (RT). The detailed procedure of chromatographic analysis was described in our previous paper. The studies were conducted in quadruplicates.
(§7) The protein concentrations in representative wells of each plate were assessed using a Bio-Rad protein assay according to the Bradford method (EnVision, PerkinElmer, Inc., Waltham, MA, USA).

MCF-7 cells [5] = assay: Cellular uptake of metformin sulfonamides in MCF-7 cells (HPLC); type: in vitro ADME, human; settings: for uptake into MCF-7 cells: 10 min incubation, 37 °C
Experimental: as §5, §6, §7

MDA-MB-231 cells [6] = assay: Cell viability WST-1 assay, MDA-MB-231; type: cell-based; settings: Homo sapiens, WST-1, 24 h; for IC50: MDA-MB-231, mean ± SD (n = 6–8), read-out: IC50 inhibition of MDA-MB-231 cells' viability
Experimental: as §2, §3

MDA-MB-231 cells [7] = assay: Uptake in the presence of OCT and MATE inhibitors, MDA-MB-231 cells; type: in vitro ADME, human; settings: for interactions with OCT, PMAT and MATE1 transporters, MDA-MB-231: summary from uptake with inhibitors
Experimental: as §4

OCTs [8] = assay: Inhibition of [14C]choline uptake in MDA-MB-231 cells (competitive inhibition assay); type: cell-based, human; settings: for IC50: mean ± SD (n = 3)
Experimental: as §1

MDA-MB-231 cells [9] = settings: metformin, cited from earlier work
MCF-7 cells [10] = settings: metformin, cited from earlier work
MCF-7 cells [11] = system: MCF-7 cells; design: method as in PMID 30913467; settings: up to 3000 µmol/L; cited from earlier work
OCT3-BT20 cells = system: OCT3-BT20 cells; design: method as in PMID 26669511; settings: OCT3-overexpressing BT-20 vs BT-20; cited from earlier work
MDA-MB-231 cells [12] = system: MDA-MB-231 cells; design: method as in PMID 30913467; settings: up to 3000 µmol/L; cited from earlier work
[13] = compound and inhibitor 400 and 800 µmol/L, 10 min, 37 °C
[14] = Eadie-Hofstee analysis, transporter I
[15] = Eadie-Hofstee analysis, transporter I, read-out: Km, transporter I, MDA-MB-231
[16] = Eadie-Hofstee analysis, transporter II
[17] = Eadie-Hofstee analysis, transporter II, read-out: Km, transporter II, MDA-MB-231
[18] = Michaelis-Menten curve, read-out: Km MDA-231 cells (Michaelis Menten curves)
[19] = Eadie-Hofstee analysis, transporter I, read-out: Km, transporter I, MCF-7
[20] = Eadie-Hofstee analysis, transporter II, read-out: Km, transporter II, MCF-7
[21] = Michaelis-Menten curve, read-out: Km MCF-7 (Michaelis Menten curves)
[22] = reported previously, ref Markowicz-Piasecka et al., 2019

Row | Structure (SMILES) | IC50 (OCTs [1]) [µM] | IC50 (MCF-7 cells [2]) [µM] | uptake in the presence of disopyramide, MCF-7 (MCF-7 cells [3]; [13]) | uptake in the presence of lopinavir, MCF-7 (MCF-7 cells [3]; [13]) | uptake in the presence of methenamine, MCF-7 (MCF-7 cells [3]; [13]) | interactions with OCT, PMAT and MATE1 transporters, MCF-7 (MCF-7 cells [3]) | Vmax, transporter I, MDA-MB-231 (MDA-MB-231 cells [4]; [14]) [nmol/min/mg] | Km (MDA-MB-231 cells [4]; [15]) [mM] | Vmax, transporter II, MDA-MB-231 (MDA-MB-231 cells [4]; [16]) [nmol/min/mg] | Km (MDA-MB-231 cells [4]; [17]) [mM] | Vmax MDA-231 cells (Michaelis Menten curves) (MDA-MB-231 cells [4]; Michaelis-Menten curve) [nmol/min/mg] | Km (MDA-MB-231 cells [4]; [18]) [mM] | uptake into MCF-7 cells (MCF-7 cells [5]; 800 μmol/L) [nmol/min/mg protein] | Vmax, transporter I, MCF-7 (MCF-7 cells [5]; [14]) [nmol/min/mg] | Km (MCF-7 cells [5]; [19]) [mM] | Vmax, transporter II, MCF-7 (MCF-7 cells [5]; [16]) [nmol/min/mg] | Km (MCF-7 cells [5]; [20]) [mM] | IC50 (MDA-MB-231 cells [6]) [µM] | interactions with OCT, PMAT and MATE1 transporters, MDA-MB-231 (MDA-MB-231 cells [7]) | IC50 (OCTs [8]) [µM] | other results
1 | CN(C)C(=N)N=C(N)NS(=O)(=O)c1ccc(Br)cc1 [Compound 6] | 2060 ± 58.4 | 1140 ± 139 | significantly reduced | significantly decreased | significantly decreased | OCT1, PMAT, MATE1 | 2.644 ± 0.22 | 1.93 ± 0.223 | 2.091 ± 0.15 | 2.11 ± 0.172 | 4.044 ± 1.302 | 3.75 ± 1.6 | 1.11 ± 0.16 | 0.7898 ± 0.12 | 0.308 ± 0.102 | 13.64 ± 1.55 | 8.93 ± 1.1 | 2110 ± 137 | OCT1, OCT3, MATE1 | 2490 ± 211 | uptake into MDA-MB-231 cells (MDA-MB-231 cells [4]; 800 μmol/L, 10 min incubation, 37 °C): 0.75 ± 0.29 nmol/min/mg protein; uptake in the presence of cimetidine, MDA-MB-231 (MDA-MB-231 cells [7]; [13]): significantly decreased; uptake in the presence of disopyramide, MDA-MB-231 (MDA-MB-231 cells [7]; [13]): significantly decreased; uptake in the presence of methenamine, MDA-MB-231 (MDA-MB-231 cells [7]; [13]): significantly decreased
2 | CN(C)C(=N)N=C(N)NS(=O)(=O)c1cccc(Cl)c1 [Compound 2] | 2923 ± 9.1 | 533 ± 87.4 | profoundly elevated | profoundly elevated | – | OCT1, OCT3, PMAT | 0.077 ± 0.008 | 2.4 ± 0.353 | 0.111 ± 0.016 | 5.47 ± 0.73 | 0.157 ± 0.129 | 6.75 ± 1.73 | 2.669 ± 0.040 | 19.2 ± 2.31 | 4.01 ± 0.696 | 24.91 ± 5.44 | 7.47 ± 1.82 | 844 ± 135 | OCT1, OCT3 | 4449 ± 18.1 | uptake in the presence of cimetidine, MCF-7 (MCF-7 cells [3]; [13]): inhibited; Vmax MCF-7 (Michaelis Menten curves) (MCF-7 cells [5]; Michaelis-Menten curve): 34.4 ± 17.2 nmol/min/mg; Km (MCF-7 cells [5]; [21]): 9.05 ± 1.52 mM; uptake in MCF-7 cells relative to metformin (MCF-7 cells [5]; fold higher than parent drug metformin, 800 μmol/L): approximately 25 fold; uptake in the presence of cimetidine, MDA-MB-231 (MDA-MB-231 cells [7]; [13]): no significant differences; uptake in the presence of disopyramide, MDA-MB-231 (MDA-MB-231 cells [7]; [13]): no significant differences; uptake in the presence of lopinavir, MDA-MB-231 (MDA-MB-231 cells [7]; [13]): no significant differences; uptake in the presence of methenamine, MDA-MB-231 (MDA-MB-231 cells [7]; [13]): no significant differences
3 | CN(C)C(=N)N=C(N)N [Metformin] | – | – | – | – | – | – | – | – | – | – | – | – | – | – | – | – | – | – | – | – | Vmax MDA-231 cells (Michaelis Menten curves) (MDA-MB-231 cells [9]; [22]): 0.718 ± 0.181 nmol/min/mg; Km (MDA-MB-231 cells [9]; reported previously, ref Markowicz-Piasecka et al., 2019, read-out: Km MDA-231 cells (Michaelis Menten curves)): 3.38 ± 0.952 mM; uptake into MDA-MB-231 cells (MDA-MB-231 cells [9]): 0.117 ± 0.010 nmol/min/mg of proteins; maximal inhibition of [14C] choline uptake (OCTs [1]; 2400 μmol/L): 34.3%; Vmax MCF-7 (Michaelis Menten curves) (MCF-7 cells [10]; [22]): 0.801 ± 0.296 nmol/min/mg; Km (MCF-7 cells [10]; reported previously, ref Markowicz-Piasecka et al., 2019, read-out: Km MCF-7 (Michaelis Menten curves)): 5.58 ± 1.56 mM; uptake into MCF-7 cells (MCF-7 cells [10]): 0.107 ± 0.006 nmol/min/mg of proteins; effect on MCF-7 growth (MCF-7 cells [11]): did not significantly affect; metformin uptake in OCT3-BT20 cells relative to BT-20 cells (OCT3-BT20 cells): more than 13 fold; effect on MDA-MB-231 growth (MDA-MB-231 cells [12]): did not significantly affect; maximal inhibition of [14C] choline uptake (OCTs [8]; 2400 μmol/L): 29.9%
4 | CN(C)C(=N)N=C(N)NS(=O)(=O)c1cccc(Br)c1 [Compound 5] | 888 ± 11.4 | 106 ± 12.3 | significantly reduced | increased | increased | OCT1, MATE1, PMAT | 0.038 ± 0.004 | 0.468 ± 0.109 | 0.098 ± 0.011 | 1.07 ± 0.204 | – | – | – | 1.635 ± 0.21 | 3.62 ± 0.619 | 2.167 ± 0.196 | 6.85 ± 0.713 | – | OCT1, OCT3 | 593 ± 15 | Vmax MCF-7 (Michaelis Menten curves) (MCF-7 cells [5]; Michaelis-Menten curve): 1.87 ± 0.95 nmol/min/mg; Km (MCF-7 cells [5]; [21]): 4.94 ± 1.34 mM; viability at 3000 µM (MDA-MB-231 cells [6]; MDA-MB-231, 24 h, 3000 µmol/L, read-out: percentage of viability of MDA-MB-231 cells): ~60%
